Results published in BindingDB's records for doi:10.1021/jm9706325 (Monash University (Parkville Campus), 1999).

Target: 5-hydroxytryptamine receptor 1D (Bos taurus)
Test: Binding affinity against 5-hydroxytryptamine 1D receptor in calf caudate homogenates.

Row | Compound | Ki
1 | CN(C)CCc1c(C(=O)NCc2ccccc2)[nH]c2ccc(CCN3C(=O)CNC3=O)cc12 | 1320 nM
2 | CN(C)CCc1c(C(=O)NCc2ccccc2)[nH]c2ccc(CCN3C(=O)NC(C)(C)C3=O)cc12 | 3800 nM
